Earlier results in patent US20190177430A1, “Methods of Treating Cancers With Chemotherapy With Reduced Toxicity” (The Wistar Institute of Anatomy and Biology, priority 2016, published 2019).

Details: dosages of 250 mg/m^2

## COc1cccc2c1C(=O)c1c(O)c3c(c(O)c1C2=O)C[C@@](O)(C(=O)CO)C[C@@H]3O[C@H]1C[C@H](N)[C@H](O)[C@H](C)O1 [Doxorubicin, (7S,9S)-7-[(2R,4S,5S,6S)-4-amino-5-hydroxy-6-methyloxan-2-yl]oxy-6,9,11-trihydroxy-9-(2-hydroxyacetyl)-4-methoxy-8,10-dihydro-7H-tetracene-5,12-dione]
  Doxorubicin-induced cardiac dysfunction, share of treated patients: 9%
